According to patent publication US20250304549A1, “HYDROXYAMIDE DERIVATIVE AND USE THEREOF” (SICHUAN HUIYU PHARMACEUTICAL CO., LTD., priority 2022, published 2025):
Structures can show the parent of a compound that is named as a salt.

Legend:
LSD1 = LSD1 (Homo sapiens (Human), UniProt O60341); assay: In vitro enzyme inhibition assay - LSD1 (HTRF); format: biochemical
Method: 1. In Vitro Enzyme Inhibition Assay—LSD1
Initially, a master solution of 90 μM test compound (dissolved in DMSO) was prepared and sequentially diluted with DMSO in a 5-fold concentration gradient to yield a total of 9 concentrations of the compound working solution 1 (90×). Subsequently these 9 concentrations of working solution 1 were sequentially diluted by a 30-fold concentration gradient, i.e., 2 μL of working solution 1 was aspirated and added to 58 μL of Buffer, mixed on a vortex mixer with sufficient shaking to yield 9 concentrations of the screening test compound working solution 2 (3×). […] The mixture was incubated at room temperature for 15 minutes. […] Afterward, 2 μL of a termination solution (containing 5.4 mM 2-PCPA) was added to each well, mixed evenly, and incubated for another 15 minutes. Finally 4 μL of a pre-mixed antibody solution of Eu-anti H3K4 (PerkinElmer, TRF0404-D) and allophycocyanin (Prozyme, PJ27S) (1:1) was added to each well, mixed evenly, and incubated for 60 minutes. […] The inhibition rate was calculated through the following formula: […]
(§1) Note: ‘Negative’ refers to the group without the inhibitor; ‘Blank’ refers to the group without the enzyme.
(§2) The IC50 value was calculated by fitting the inhibition rate by GraphPad Prism software, employing log (inhibitor) vs. response-Variable Slope (four parameters) model.

pan-HDAC = assay: In vitro enzyme inhibition assay - HDAC (HDAC-Glo I/II), pan-HDAC; format: biochemical
Method: 2. In Vitro Enzyme Inhibition Assay—HDAC
The effect of the compound on the enzymatic activity of pan-HDAC and two isoforms (HDAC1 and HDAC8) was examined using the HDAC-Glo I/II Assay and Screening System assay to assess the level of inhibition of HDAC protease activity and selectivity in each isoform. The proteins and detection reagents were from the HDAC-Glo™ I/II Assay and Screening System (Promega). A 1 mM stock solution of the compound was prepared in DMSO and diluted in a 5-fold gradient to create a series of 8 concentrations, and a specific volume of the highest concentration was diluted 25 times with HDAC Buffer to obtain 4× working solution of the compound. […] The 384-well plate was then read on a multifunctional microplate reader, with the Luminescence channel selected to record Luminescence values (RLU). The inhibition rate was calculated using the following formula: […]
as §1, §2

NCI-H1417 cells = assay: In vitro cell inhibition assay - H1417 cell proliferation (CellTiter-Glo); format: cell-based; details: Homo sapiens, NCI-H1417, H1417 small cell lung cancer cell proliferation
Method: 3. In Vitro Cell Inhibition Assay—H1417 Cell Proliferation
The inhibitory effect of the compounds on cell proliferation was assessed by detecting the number of viable cells using the CellTiter-Glo® reagent. […] The compounds were sequentially diluted in a 5-fold concentration gradient with DMSO to obtain 8 different concentrations o. These were diluted with BEGM (containing 10% FBS) cell culture medium to obtain the compound working solution (2×), which was added to the cell supernatant at 100 μL per well. The incubation continued for 7 days at 37° C., 5% CO2. The plate was then removed and equilibrated to room temperature (25° C.) along with the CellTiter-Glo® mixing reagent for 10-30 minutes. After centrifugation, 100 μL of the culture medium was carefully aspirated from each well, and 85 μL of CellTiter-Glo® reagent was added. The cells were thoroughly mixed with the CellTiter-Glo® mixing reagent using a microplate shaker for 2 min. and then incubated at room temperature for 10 min. The 96-well plate was subsequently placed on a multifunctional microplate reader to record the Luminescence values (RLU). • The inhibition rate was calculated using the following formula: […]
(§3) Note: ‘Negative’ refers to the group without inhibitors; ‘Blank’ refers to the group without cells.
(§4) The IC50 value was determined by fitting the inhibition rate by GraphPad Prism software.

NCI-H69 cells = assay: In vitro cell inhibition assay - NCI-H69 cell proliferation (CellTiter-Glo); format: cell-based; details: Homo sapiens, NCI-H69, H69 small cell lung cancer cell proliferation
Method: 4. In Vitro Cell Inhibition Assay—NCI-H69 Cell Proliferation
The inhibitory effect of the compounds on cell proliferation was assessed by detecting the number of viable cells using the CellTiter-Glo® reagent. NCI-H69 cells in the logarithmic growth phase were collected and inoculated into transparent bottom 96-well plates at a density 1×10^3 cells per well with 100 μL medium, and incubated at 37° C., 5% CO2 overnight. The compounds were sequentially diluted in a 5-fold concentration gradient with DMSO to obtain 8 different concentrations These were then diluted with RPMI-640 (containing 20% FBS) cell culture medium to obtain the compounds working solution (2×), which was added to the cell supernatant at 100 μL per well. The incubation continued for 7 days at 37° C., 5% CO2. The plate was then removed and equilibrated to room temperature (25° C.) along with the CellTiter-Glo® mixing reagent for 10-30 minutes. After centrifugation at 1200 rpm for 5 minutes, 120 μL of the culture medium was carefully aspirated from each well, and 60 μL of CellTiter-Glo® reagent was added. The cells were thoroughly mixed with the CellTiter-Glo® mixing reagent using a microplate shaker for 2 min. and then incubated at room temperature for 10 min. The 96-well plate was subsequently placed on a multifunctional microplate reader to record the Luminescence values (RLU).
The inhibition rate was calculated using the following formula: […]
as §3, §4

SMILES | IC50 (LSD1) [nM] | IC50 (pan-HDAC) [nM] | IC50 (NCI-H1417 cells) [nM] | IC50 (NCI-H69 cells) [nM]
CS(=O)(=O)c1ccc(-c2c(OCCCCCCC(=O)NO)cc(N3CCC(N)CC3)nc2-c2ccc(C#N)c(F)c2)cc1 [Example 4, 7-(6-(4-Aminopiperidin-1-yl)-2-(4-cyano-3-fluorophenyl)-3-(4-(methylsulfonyl)phenyl)pyridin-4-yl)oxy)-N-hydroxyheptanamide hydrochloride] | 11.9 | 12 | 209 | 
COc1ccc(-c2c(OCCCCCCC(=O)NO)cc(N3C4CCC3CC(N)C4)nc2-c2ccc(C#N)c(F)c2)cc1O (centres unmarked) [Example 9, 7-((6-(3-Amino-8-azabicyclo[3.2.1]octan-8-yl)-2-(4-cyano-3-fluorophenyl)-3-(3-hydroxy-4-methoxyphenyl)pyridin-4-yl)oxy)-N-hydroxyheptanamide hydrochloride] | 1.82 | 25.3 | 915 | 3100
COc1ccc(-c2c(OCCCCCCC(=O)NO)cc(N3CCC(N)CC3)nc2-c2ccc(C#N)cc2)cc1O [Example 12, 7-((6-(4-Aminopiperidin-1-yl)-2-(4-cyanophenyl)-3-(3-hydroxy-4-methoxyphenyl)pyridin-4-yl)oxy)-N-hydroxyheptanamide] | 0.92 | 7.31 |  | 
N#Cc1ccc(-c2nc(N3CCC(N)CC3)cc(OCCCCCCC(=O)NO)c2-c2ccc(OCCO)cc2)cc1F [Example 17, 7-((6-(4-Aminopiperidin-1-yl)-2-(4-cyano-3-fluorophenyl)-3-(4-(2-hydroxyethoxy)phenyl)pyridin-4-yl)oxy)-N-hydroxyheptanamide formate] | 23.8 | 21.6 | > 1000 | 3270
N#Cc1ccc(-c2nc(N3CC4CC3CC4N)n3ccnc3c2-c2ccc(OCCCCCCC(=O)NO)c(O)c2)cc1F (centres unmarked) [Example 22, 7-(4-(5-(5-(5-Amino-2-azabicyclo[2.2.1]heptan-2-yl)-7-(4-cyano-3-fluorophenyl)imidazo[1,2-c]pyrimidin-8-yl)-2-hydroxyphenoxy)-N-hydroxyheptanamide hydrochloride] | 0.31 | 144 | 106 | 4730
Cc1nc(N2CCC(N)CC2)c(C#N)c(-c2ccc(C#N)c(F)c2)c1-c1ccc(OCCCCCCC(=O)NO)c(O)c1 [Example 26, 7-(4-(6-(4-Aminopiperidin-1-yl)-5-cyano-4-(4-cyano-3-fluorophenyl)-2-methylpyridin-3-yl)-2-hydroxyphenoxy)-N-hydroxyheptanamide hydrochloride] | 0.12 | 35 | 152 | 
COc1ccc(-c2c(-c3ccc(C#N)c(F)c3)nc(N3CCC(NCCCCCCC(=O)NO)CC3)n3ccnc23)cc1O [Example 35, 7-((1-(7-(4-Cyano-3-fluorophenyl)-8-(3-hydroxy-4-methoxy-phenyl)imidazo[1,2-c]pyrimidin-5-yl)piperidin-4-yl)amino)-N-hydroxy-heptanamide hydrochloride] | 4.63 | 266 | 188 | 
COc1ccc(-c2cnc(N3CCC(C)(NCc4ccc(/C=C/C(=O)NO)nc4)CC3)c(C#N)c2-c2ccc(C#N)c(F)c2)cc1O [Example 213, (E)-3-(5-(((1-(3-Cyano-4-(4-cyano-3-fluorophenyl)-5-(3-hydroxy-4-methoxyphenyl)pyridin-2-yl)-4-methylpiperidin-4-yl)amino)methyl)pyridin-2-yl)-N-hydroxyacrylamide formate] | 2.12 | 19.7 | 7.32 | 76.1
CC1(NCc2ccc(/C=C/C(=O)NO)cc2)CCN(c2ncc(-c3ccc(OC(F)(F)F)c(O)c3)c(-c3ccc(C#N)c(F)c3)c2C#N)CC1 [Example 214, (E)-3-(4-(((1-(3-Cyano-4-(4-cyano-3-fluorophenyl)-5-(3-hydroxy-4-(trifluoromethoxy)phenyl)pyridin-2-yl)-4-methylpiperidin-4-yl)amino)methyl)phenyl)-N-hydroxyacrylamide formate] | 4.98 | 143 | 7.9 | 496
CC(C)(O)COc1ccc(-c2cnc(N3CCC(C)(NCc4ccc(/C=C/C(=O)NO)cc4)CC3)c(C#N)c2-c2ccc(C#N)c(F)c2)cc1O [Example 215, (E)-3-(4-(((1-(3-Cyano-4-(4-cyano-3-fluorophenyl)-5-(3-hydroxy-4-(2-hydroxy-2-methylpropoxy)phenyl)pyridin-2-yl)-4-methylpiperidin-4-yl)amino)methyl)phenyl)-N-hydroxyacrylamide formate] | 0.39 | 68 | 2.65 | 295

The remaining lines, values ahead:

IC50 (LSD1) [nM] | IC50 (pan-HDAC) [nM] | IC50 (NCI-H1417 cells) [nM] | IC50 (NCI-H69 cells) [nM] | SMILES
13.7 | 29 | 226 |  | COc1ccc(-c2c(OCCCCCCC(=O)NO)cc(N3CCC(N)CC3)nc2-c2ccc(C#N)c(F)c2)cc1F [Example 3, 7-(6-(4-Aminopiperidin-1-yl)-2-(4-cyano-3-fluorophenyl)-3-(3-fluoro-4-methoxyphenyl)pyridin-4-yl)oxy-N-hydroxyheptanamide hydrochloride]
1.45 | 27.5 | 221 | 2990 | COc1ccc(-c2c(OCCCCCCC(=O)NO)cc(N3CC4CC3CC4N)nc2-c2ccc(C#N)c(F)c2)cc1O (centres unmarked) [Example 15, 7-((6-(5-Amino-2-azabicyclo[2.2.1]heptan-2-yl)-2-(4-cyano-3-fluorophenyl)-3-(3-hydroxy-4-methoxyphenyl)pyridin-4-yl)oxy)-N-hydroxyheptanamide hydrochloride]
0.26 | 72 | 14.5 |  | N#Cc1ccc(-c2nc(N3CCC(N)CC3)n3ccnc3c2-c2ccc(NC(=O)CCCCCCC(=O)NO)c(O)c2)cc1F [Example 57, N^1-(4-(5-(4-aminopiperidin-1-yl)-7-(4-cyano-3-fluorophenyl)imidazo[1,2-c]pyrimidin-8-yl)-2-hydroxyphenyl)-N^8-hydroxyoctanediamine diformate]
1.89 | 39 | 21.2 | 444 | COc1ccc(-c2c(-c3ccc(C#N)c(F)c3)nc(N3CCC(NCc4ccc(/C=C/C(=O)NO)cc4)CC3)n(C)c2=O)cc1O [Example 67, (E)-3-(4-(((1-(4-(4-Cyano-3-fluorophenyl)-5-(3-hydroxy-4-methoxy-phenyl)-1-methyl-6-oxo-1,6-dihydro-pyrimidin-2-yl)piperidin-4-yl)amino)methyl)phenyl)-N-hydroxy-acrylamide formate]
0.15 | 3.57 | 6.06 | 51.6 | COc1ccc(-c2cnc(N3CCC(NCc4ccc(SCC(=O)NO)cc4)CC3)c(C#N)c2-c2ccc(C#N)c(F)c2)cc1O [Example 216, 2-((4-((1-(3-cyano-4-(4-cyano-3-fluorophenyl)-5-(3-hydroxy-4-methoxyphenyl)pyridin-2-yl)piperidin-4-yl)amino)methyl)phenyl) thio)-N-hydroxyacetamide formate]
